Test results from ChEMBL document CHEMBL4346723, “Targeting tropomyosin receptor kinase for cancer therapy” (Eur J Med Chem, 2019).
pIC50: −log10 of the molar value.

Columns and labels:
[1] = target: T1, Aurora kinase A (Homo sapiens, UniProt O14965); assay: Inhibition of aurora A (unknown origin)
T1 sequence (O14965 whole entry): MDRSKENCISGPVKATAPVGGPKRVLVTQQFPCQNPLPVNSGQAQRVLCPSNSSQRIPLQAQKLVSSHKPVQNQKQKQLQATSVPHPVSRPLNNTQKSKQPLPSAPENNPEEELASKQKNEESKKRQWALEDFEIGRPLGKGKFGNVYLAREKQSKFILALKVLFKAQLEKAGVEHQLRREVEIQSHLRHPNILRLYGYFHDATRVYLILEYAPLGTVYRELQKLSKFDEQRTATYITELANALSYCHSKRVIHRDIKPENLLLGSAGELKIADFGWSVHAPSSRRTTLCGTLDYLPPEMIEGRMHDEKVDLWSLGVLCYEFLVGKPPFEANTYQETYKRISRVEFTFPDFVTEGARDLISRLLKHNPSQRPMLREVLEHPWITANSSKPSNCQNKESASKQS

[2] = target: RAF proto-oncogene serine/threonine-protein kinase (Homo sapiens, UniProt P04049); assay: Inhibition of c-RAF (unknown origin)
Chain of RAF proto-oncogene serine/threonine-protein kinase (P04049 whole entry): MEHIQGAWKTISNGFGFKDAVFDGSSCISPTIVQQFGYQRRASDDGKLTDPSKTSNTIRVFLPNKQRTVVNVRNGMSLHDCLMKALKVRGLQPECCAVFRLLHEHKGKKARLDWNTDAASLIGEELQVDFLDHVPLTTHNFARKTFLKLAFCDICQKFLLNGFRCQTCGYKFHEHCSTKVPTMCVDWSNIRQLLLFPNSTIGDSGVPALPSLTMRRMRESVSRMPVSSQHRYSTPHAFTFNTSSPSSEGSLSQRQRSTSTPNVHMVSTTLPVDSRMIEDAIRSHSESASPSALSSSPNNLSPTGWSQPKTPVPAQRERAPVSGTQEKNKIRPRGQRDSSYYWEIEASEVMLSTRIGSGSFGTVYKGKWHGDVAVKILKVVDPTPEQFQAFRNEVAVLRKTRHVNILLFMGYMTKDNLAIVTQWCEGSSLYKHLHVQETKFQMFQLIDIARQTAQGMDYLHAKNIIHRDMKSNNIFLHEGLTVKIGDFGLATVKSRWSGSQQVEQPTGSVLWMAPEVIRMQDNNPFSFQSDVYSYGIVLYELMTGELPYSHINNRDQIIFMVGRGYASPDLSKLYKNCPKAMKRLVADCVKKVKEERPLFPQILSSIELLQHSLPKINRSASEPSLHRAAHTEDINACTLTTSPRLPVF

[3] = system: PANC-1; assay: Antiproliferative activity against human PANC1 cells at 10 uM incubated for 48 hrs by MTT assay relative to control; type: functional
[4] = system: BXPC-3; assay: Antiproliferative activity against human BxPC3 cells at 10 uM incubated for 48 hrs by MTT assay relative to control; type: functional
[5] = system: MIA PaCa-2; assay: Antiproliferative activity against human MIAPaCa2 cells at 10 uM incubated for 48 hrs by MTT assay relative to control; type: functional

**Q.** Which results are given for `Cc1cn(-c2cc(C(=O)Nc3cccc(Nc4ccc5c(c4)NC(=O)/C5=C\c4ccc[nH]4)c3)cc(C(F)(F)F)c2)cn1`?
**A.** pIC50 [1]: 7.82; pIC50 [2]: 6.94

**Q.** For `CN(C)S(=O)(=O)c1cc(-c2cnc3[nH]cc(-c4ccncc4)c3c2)cnc1N`, which Activity [3] is on record?
**A.** The Activity was 30%.

**Q.** And the Activity [4]?
**A.** The Activity was under 20%.

**Q.** And the Activity [5]?
**A.** The Activity was under 20%.
